Data on one compound can be found in patent publication US9315522B2, “Antibacterial compounds” (JANSSEN SCIENCES IRELAND UC, priority 2012, dated 2016).

One data set deals with S. aureus. The data set can be described thus: Antibacterial susceptibility testing, IC90 determination with 10% human serum (STA + 10% HS). The settings on record: Staphylococcus aureus, human serum at final concentration of 10%, read-out: STA + 10% HS (361.169) IC90. In kind it is cell-based, Staphylococcus aureus. The method in brief: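 Broth microdilution in Mueller-Hinton broth with 10% human serum, 5×10^5 CFU/ml S. aureus, two-fold compound dilutions (typically 63 to 0.49 μM), 1.25% DMSO, 16-20 h at 35° C. Growth read fluorometrically with resazurin (ex 540/em 590 nm); IC90 in μg/ml is the 90% growth-inhibitory concentration.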

Data set [1] in a line: Thermodynamic solubility (pH solubility profiling). It is filed as physicochemical. The settings on record: thermodynamic from solid. Here is the method: The pH solubility profiling was carried out at ambient temperature for a period of 4 days. A saturation solubility study was carried out in order to determine maximum solubility in a particular buffer solution. The compound was added to respective buffer solution until saturation point is reached. This was followed by shaking the flask for 4 days at ambient temperature. After 4 days, the solutions were filtered and injected on UPLC and the concentration was determined using a generic HPLC method.

The test system of data set [2] is S. aureus strain ATCC 29213. The data set can be described thus: In vivo efficacy, peritonitis model of S. aureus infection. The settings on record: female Swiss albino mice, IP infection, inoculum 8.9 log10, PO, QD, Sol 20% CD + 1HCl, 3 days post-infection. From the text:
The concept of studying the in vivo effect of an antibacterial compound by treating intraperitoneally infected mice was introduced in 1911 for optochin against pneumococci (Morgenroth and Levy, 1911). The popularity of the model comes from the ease of its use with short-duration experiments, reproducible infections and simple end-points.
Methicillin-sensitive S. aureus strain ATCC 29213 was used to infect female Swiss albino mice. A Brain Heart Infusion (BHI) broth bacterial culture was inoculated the day before infection, incubated at 37° C. overnight and diluted in fresh BHI broth to the desired concentration. Intraperitoneal (i.p.) injection of ˜5×10^9 colony forming units (CFU) was performed in either of the lateral lower quadrants of the abdomen. After inoculation, mice were kept in their cages under daily observation for development of signs of infection or death. For the treatment of mice, the p.o. route was used and each mouse was treated individually by gavage. Example of Cpd No. 48 was formulated as a 20% HP-β-cyclodextrin and example of Cpd No. 38 was formulated as a water/Tween-20 suspension. The parameter used for monitoring the course of infection and the effect of treatment was death or survival of the animals over 3 days post-infection. As death could also be due to toxic side effects, a non-infected control group of 3 mice, treated with the highest dose of the compound tested, was included.

The target in data set [3] is T1, S. aureus ATCC 29213 FabI (Staphylococcus aureus, UniProt Q6GI75).
T1 sequence (Q6GI75 1-256): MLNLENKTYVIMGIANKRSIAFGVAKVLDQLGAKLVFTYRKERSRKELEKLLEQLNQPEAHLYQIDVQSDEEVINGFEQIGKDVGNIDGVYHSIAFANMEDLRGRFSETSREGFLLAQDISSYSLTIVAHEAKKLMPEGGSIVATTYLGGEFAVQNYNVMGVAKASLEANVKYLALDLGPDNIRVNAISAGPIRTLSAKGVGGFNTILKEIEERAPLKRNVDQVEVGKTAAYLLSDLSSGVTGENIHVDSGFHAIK
Put plainly: Staphylococcus aureus FabI enzyme inhibition assay. The settings on record: read-out: FabI (300.235) IC50 (converted). It is filed as biochemical. The method in brief: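 S. aureus ATCC 29213 FabI (50 μg/ml) with 250 μM crotonoyl-CoA and 625 μM NADH in 100 mM NaADA pH 6.5, inhibitor 50–0.39 μM, 30 min at room temperature. Stopped by Tris pH 9.0 shift; NADH at 340 nm versus no-compound and no-enzyme controls; IC50 in μg/ml.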

Values after ≈ are worked out from the molar mass of the structure shown.

What is called IC90 is the concentration at which the effect reaches the 90% level. For orientation: solubility (thermodynamic) means the concentration in solution at equilibrium with solid. One may read the IC50 as the midpoint of a concentration-inhibition curve. As for `O=C1CNCc2cc(/C=C/C(=O)N3CC4C=C(c5nccs5)CC4C3)cnc2N1` (centres unmarked) [compound 48], in the data set on S. aureus, the IC90 turned out to be 0.21 mg/L. For the same compound, the thermodynamic solubility at 4 days in data set [1] (aqueous buffer, Buffer pH 4, ambient temperature) was 0.44 mg/mL (≈ 1.08 mM); in data set [1] (aqueous buffer, Buffer pH 7.4, ambient temperature), above 1.23 mg/mL; in data set [1] (aqueous with cosolvent or surfactant or cyclodextrin, 10% HP-β-CD buffer pH 4, ambient temperature) it was above 2.47 mg/mL; in data set [1] (aqueous with cosolvent or surfactant or cyclodextrin, 10% HP-β-CD buffer pH 7.4, ambient temperature), above 1.38 mg/mL; in data set [1] (aqueous with cosolvent or surfactant or cyclodextrin, 20% HP-β-CD buffer pH 4, ambient temperature), above 4.72 mg/mL; in data set [1] (aqueous with cosolvent or surfactant or cyclodextrin, 20% HP-β-CD buffer pH 7.4, ambient temperature), above 2.41 mg/mL. In data set [1] (pH 2, simulated gastric fluid, 0.01N HCl, ambient temperature), the thermodynamic solubility at 4 days was above 2.56 mg/mL. For the same compound, the “% Survival” value in data set [2] (1 mpk) was found to be 57%; in data set [2] (5 mpk) it was 100%. In data set [3], the IC50 was around 0.663 µM.
